Key:
[1] = test system: succinate dehydrogenase (SDH); assay: SDH activity colorimetric kinetic assay; format: cell-based, human; conditions: EGF 25 ng/mL, 12 hours; not significant
Description: To investigate whether iEF has an effect on metabolic function of MDA-MB-231 cells, the activity levels of lactate dehydrogenase (LDH) and succinate dehydrogenase (SDH) were examined. LDH is an enzyme that catalyzes the interconversion of pyruvate to lactate as part of the glycolysis chain (Pelicano H, et al. (2006) Oncogene 25 (34):4633). SDH is an enzyme within Complex II of the mitochondria that is utilized in both the tricarboxylic acid (TCA) cycle as well as oxidative phosphorylation (OXPHOS) (Gottlieb E & Tomlinson IP (2005) Nat Rev Cancer. 5 (11):857). As part of the TCA cycle, SDH catalyzes the oxidation of succinate to fumarate, and as part of OXPHOS, SDH transfers two electrons from flavin adenine dinucleotide into the electron transport chain (Gottlieb E & Tomlinson IP (2005) Nat Rev Cancer. 5 (11):857). To determine whether LDH or SDH activity levels were changing, colorimetric kinetic assays were employed. […]
1×10^6 cells/well were plated in 6 well plates in growth media for 12 hours followed by migration media (0.1% FBS) for an additional 12 hours. […] The LDH activity assay kit (Sigma-Aldrich, MAK066) and the SDH activity colorimetric assay kit (Sigma-Aldrich, MAK197) were used to quantify LDH and SDH activity respectively. […] For quantification of LDH and SDH, the protocols provided by the supplier were followed. […]

MDA-MB-231 cells = assay: Microfluidic bi-directional migration (MBDM) assay, mean migration speed and persistence; format: cell-based, human
Description: To quantify the effects of iEF treatment on directed cell migration speed and persistence, a custom microfluidic bi-directional microtrack (MBDM) assay was developed that enables real-time monitoring with time-lapse microscopy of cell motility.
In this study, the EF sensing mechanisms of breast cancer cells in response to asymmetric iEFs (<100 μV/cm) was investigated. Using a MBDM assay, changes in the speed and persistence of spontaneously migrating MDA-MB-231 breast cancer cells were observed. This cell type was selected for these studies because it is a putative metastatic breast cancer cell line that is also responsive to gradients of a chemoattractant such as EGF (Wang S J, et al. (2004) Exp Cell Res 300 (1):180-189; Wu A, et al. (2013) Proc Natl Acad Sci U S A 110(40):16103-16108). […] This configuration enables direct comparison of cell movement in response to iEFs applied primarily with the direction of cell migration (“parallel”) or against the direction of cell migration (“anti-parallel”) within the same microfluidic device. Here, the field direction is defined as the direction that has the higher peak magnitude, as well as higher time-average field strength.
To calculate persistence, the following protocol was followed for each cell tracked in a microtrack of the MBDM assay. A cell starts at position Pt at time t. After a single time increment, dt, the cell moves to a new position, Pt+dt. The distance traveled during this time is the absolute difference in the two positions denoted as Li: Li=|Pt+dt−Pt|
The total distance traveled is then the sum of all distances traveled during N time increments denoted as Lt. Additionally, the total time of travel is the number of time increments multiplied by the size of the time increments denoted as Tt.
The displacement is simply the difference between the final and initial position: Ld=|PFinal−PInitial|
The MBDM assay was designed to have three ports separated by 700 μm long arrays of parallel microtracks (FIG. 1D). The dimension of each port was 50 mm×15 mm. Cells were seeded in the center port and the top and bottom ports were designated as cell collection port and/or chemokine source reservoir port depending on the experimental condition. Microchannels were designed to have a square cross-section of 20 μm×20 μm. The cross-section dimensions were on the same order as the size of single cells and mimic the dimensions of pre-existing microtracks available to cells in-vivo (Kraning-Rush C M, et al. (2013) lntegr Biol (Camb). 5 (3):606-616). Moreover, these migratory tracks are representative of physiologically relevant matrix metalloproteinase independent cancer-cell migration mode during metastasis (Friedl P & Alexander S (2011) Cell 147 (5):992-1009; Wolf K, et al. (2009) Semin Cell Dev Biol. 20 (8):931-941; Friedl P & Wolf K (2003) Nat Rev Cancer. 3 (5):362; Wolf K, et al. (2007) Nat Cell Biol. 9 (8):893; Wolf K, et al. (2003) J Cell Biol. 160 (2):267-277). The bi-directional design of this assay allows cells to migrate in either direction from the seeding port and provides a better understanding and quantification of the directional bias of external cues such as chemokine gradients and the directional effects of applied iEFs. The large ports for cell seeding ensure uniform seeding density, excellent cell viability, and repeatability.
Cells were washed in culture plates with 1×PBS solution, treated with 0.05% trypsin-EDTA solution (Sigma-Aldrich), and then counted using a hemocytometer. Cells (2×10^5) suspended in migration media were seeded in the middle port (seeding port) with an extremely small flow from the collection ports to the seeding port, which equilibrated in less than 15 minutes. The cells inside the devices were then incubated for 12 hours in migration media following which the media was aspirated and replaced with new media based on the experimental conditions. […]

In the case of epidermal growth factor [EGF], the “increase of SDH activity” value [1] is reported as 23%, the mean migration speed (MDA-MB-231 cells; EGF gradient (25 ng/mL) alone, no iEF, no inhibitor) is reported as 0.43 μm/min and the average persistence (MDA-MB-231 cells; stable EGF gradient alone) is reported as 0.84. The “increase of persistence compared to untreated control” value (MDA-MB-231 cells; stable EGF gradient alone) was 6% and the “mean migration speed compared to untreated controls” value (MDA-MB-231 cells; stable EGF gradient alone) was “increased significantly”.

Source: patent publication US12306176B2, “Microfluidic bi-directional migration assay” (Ohio State Innovation Foundation, priority 2017, dated 2025)
